Experimental data published in PMC5065625, “Structure-mechanism-based engineering of chemical regulators targeting distinct pathological factors in Alzheimer's disease” (Nature Communications, 2016).

Assays:
[1] = Parallel artificial membrane permeability assay adapted for BBB (PAMPA-BBB); type: in vitro ADME; settings: 25 μM, pH 7.4, 4 h
Procedure: PAMPA-BBB experiments were conducted using the PAMPA Explorer kit (pION Inc., Billerica, MA, USA) using previously reported protocols. Compounds (25 μM, 200 μl) in pH 7.4 Prisma HT buffer (pION) were added to the wells of a donor plate (number of replicates=12). The polyvinylidene fluoride (PVDF, […]) filter membrane on the acceptor plate was coated with BBB-1 lipid formulation (5 μl, pION). The acceptor plate was placed on top of the donor plate. Brain sink buffer (BSB, 200 μl, pION) was added to each well of the acceptor plate and was incubated for 4 h at ambient temperature without stirring. UV–vis spectra of the solutions in the reference, acceptor, and donor plates were measured using a microplate reader. The PAMPA Explorer software v. 3.5 (pION) was used to calculate the −logPe values for compounds. CNS±designations were assigned by comparison with compounds that were identified in previous reports.

[2] = Stability in solution (UV–vis, ESI–MS) in the presence of Cu(II); type: physicochemical; settings: Cu 25 μM; for k, + Cu(II) (rate of decay of the absorbance peak) / t1/2, + Cu(II) / half-life at 50 μM: HEPES pH 7.4, 37 °C; for half-life at 50 μM: HEPES buffer with CuCl2, pH 7.4, compound 50 μM, read-out: t1/2, + Cu(II)
Procedure: (§1) The stability of 1–4 (50 μM) in the absence and presence of CuCl2 (25 μM) was monitored every 10 min using UV–vis for 5 h in buffer ([…], pH 7.4, […]; 1% DMSO) at 37 °C. The resulting spectra were corrected for baseline shifts at 800 nm and the half-life and rate of decay of the absorbance at 250, 385 and 400 nm for 4, [Cu(II)+1], and [Cu(II)+3], respectively, was calculated using the first-order exponential decay function as implemented in Origin 9.1 (OrginLab Corp., Northampton, MA, USA). Additionally, the species present were identified using ESI–MS. Samples containing 1–4 (50 μM) with or without CuCl2 (25 μM) were incubated in ddH2O (1% DMSO) at 37 °C for the selected time points before being freshly frozen using liquid nitrogen and stored at −80 °C until they were thawed immediately before measurement.

[3] = Stability in solution (UV–vis, ESI–MS), metal-free; type: physicochemical; settings: for k, metal-free (rate of decay of the absorbance peak) / t1/2, metal-free / Stability in solution: 50 μM; for Stability in solution: metal-free, HEPES pH 7.4, 37 °C, 5 h
Procedure: as §1

Cu(II)–Aβ40/Aβ42 = biological target: T1, Cu(II)–Aβ40/Aβ42 (Homo sapiens, UniProt P05067); assay: nESI-MS / IM–MS interaction studies with Cu(II); type: binding; settings: Aβ40 18 μM, copper(II) acetate 40 μM, compound 120 μM, pH 7.5, 37 °C, 30 min
T1 construct: Aβ40 or Aβ42 was dissolved in ammonium hydroxide
T1 sequence (P05067 672-711): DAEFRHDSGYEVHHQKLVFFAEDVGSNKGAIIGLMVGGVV
Procedure: All IM–MS experiments were carried out on a Synapt G2 (Waters, Milford, MA)[27][28][29][58]. Samples were ionized using a nano-electrospray source operated in positive ion mode. MS instrumentation was operated at a backing pressure of 2.7 mbar and sample cone voltage of 40 V. The m/z scale was calibrated using 20 mg ml^−1 aqueous cesium iodide. For peptide-metal ligation studies, the aliquots of Aβ peptides (final concentration 18 μM) were sonicated for 5 s before pre-incubation with or without a source of Cu(II) (copper(II) acetate) at 37 °C for 10 min. […] Solution conditions were 100 mM ammonium acetate (pH 7.5) with 1% v/v DMSO. Covalent binding studies with 4 were performed by incubating aliquots of Aβ with the ligand at a ratio of 1:0, 1:5 and 1:25 in water for either 24 h or a week at 25 °C. After incubation the samples were lyophilized for storage until analysis. Immediately before analysis samples were reconstituted to 50 μM peptide concentration in 1,1,1,3,3,3-hexafluoro-2-propanol, sonicated and diluted further to 25 μM for data acquisition. Accurate mass values for ligand-bound complexes were calculated using the monoisotopic peak difference between apo and ligated states with errors reported as a function of two times the s.d. collision cross section (CCS) measurements were externally calibrated using a database of known values in helium, using values for proteins that bracket the likely CCS and ion mobility values of the unknown ions[58][59]. CCS values are the average of six replicates with errors reported as the least square product. This least square analysis combines inherent calibrant error from drift tube measurements (3%)[59]. calibration curve error, and two times the replicate s.d. error. All other conditions are consistent with previously published methods.
Aβ (100 μM) was incubated with 4 (500 μM) in 100 mM ammonium acetate, pH 7.5, without and with the addition of CuCl2 (100 μM) for 1 h at 37 °C without agitation. Before injection into the mass spectrometer, the resulting Aβ was diluted by 10-fold. ESI–MS analysis was performed using a Synapt G2-Si quadrupole time-of-flight mass spectrometer (Waters, Manchester, UK) equipped with electrospray ionization source. The capillary voltage, sampling cone voltage, and source temperature were set to 2.8 kV, 70 V, and 60 °C, respectively. The backing pressure was adjusted to 3.2 mbar.

[4] = system: cationic organic radical of ABTS; assay: Trolox equivalent antioxidant capacity (TEAC) assay in M17 cell lysates; type: biochemical, human; settings: relative to Trolox
Procedure: The assay employing M17 cell lysates was conducted following the protocol of the antioxidant assay kit purchased from Cayman Chemical Company (Ann Arbor, MI, USA) with minor modifications. For the antioxidant assay using cell lysates, cells were seeded in a six-well plate and grown to ∼80–90% confluence. Cell lysates were prepared following a previously reported method with modifications. M17 cells were washed once with cold PBS (pH 7.4, GIBCO) and harvested by gently pipetting off adherent cells with cold PBS. The cell pellet was generated by centrifugation (2,000g for 10 min at 4 °C). This cell pellet was sonicated on ice (5 s pulses, three times with 20 s intervals between each pulse) in 2 ml of cold Assay Buffer (5 mM potassium phosphate, pH 7.4, containing 0.9% NaCl and 0.1% glucose). The cell lysates were centrifuged at 5,000g for 10 min at 4 °C. The supernatant was removed and stored on ice until use. For standard and samples in 96-well plates, 10 μl of the supernatant of cell lysates was delivered followed by addition of compound, metmyoglobin, ABTS and H2O2 in order. After 5 min incubation at room temperature on a shaker, absorbance values at 750 nm were recorded. The antioxidant concentration was calculated according to the measured absorbance (% inhibition=100 × (A0 – A)/A0, where A0 is absorbance of the supernatant of cell lysates). The measurements were conducted in triplicate.

[5] = HEPES pH 7.4, 150 μM NaCl, 37 °C
[6] = HEPES pH 7.4, 150 μM NaCl, 37 °C, absorbance peak decay

| −logPe [1] | half-life at 50 μM [2] [min] | half-life at 50 μM ([3]; HEPES buffer, pH 7.4, 50 μM, HEPES pH 7.4, 150 μM NaCl, 37 °C, absorbance peak decay, read-out: t1/2, metal-free) [min] | Structure (SMILES) | Stability of the complex with Cu(II) ([2]; compound 50 μM, 5 h) | k, + Cu(II) (rate of decay of the absorbance peak) ([2]; compound 50 μM) | t1/2, + Cu(II) ([2]; compound 50 μM) | k, metal-free (rate of decay of the absorbance peak) [3, 5] | t1/2, metal-free [3, 6] | Stability in solution [3] | Interaction with Aβ in the presence of Cu(II) (Cu(II)–Aβ40/Aβ42) | Free organic radical scavenging ability (TEAC) [4] |
| --- | --- | --- | --- | --- | --- | --- | --- | --- | --- | --- | --- |
| 4.2(8) |  |  | COc1cc(NCc2ccccn2)cc(OC)c1 [compound 2, 3,5-dimethoxy-N-(pyridin-2-ylmethyl)aniline] | without any further transformations over the course of 5 h | too slow to accurately measure the rate | No noticeable spectral changes were observed over 5 h | too slow to accurately measure the rate | No noticeable spectral changes were observed over 5 h | stable over 5 h | stable ternary complexes |  |
| 4.9(0) | < 1 | 43 ± 5 | CN(C)c1ccc(NCc2ccc[nH]2)cc1 [compound 4, N^1-((1H-pyrrol-2-yl)methyl)-N^4,N^4-dimethylbenzene-1,4-diamine] |  | too rapidly to measure |  | 0.016 ± 0.004 min⁻¹ | ~40 min | unstable | not shown to bind to Aβ40 | greater capacity than 2 |
| 4.2(2) | 53 ± 3 |  | CN(C)c1ccc(NCc2ccc3ccccc3n2)cc1 [compound 3, N^1,N^1-dimethyl-N^4-(quinolin-2-ylmethyl)benzene-1,4-diamine] |  | 0.013 ± 0.001 min⁻¹ | ~50 min | too slow to accurately measure the rate | No noticeable spectral changes were observed over 5 h | changes in its Ultraviolet-Visible (UV-vis) spectra after 5 h of incubation occurring at a very slow rate | Cu–ligand-dependent signals corresponding to a mass 89 Da lighter than the apo Aβ40/Aβ42 | greater capacity than 2 |

| Structure (SMILES) | −logPe [1] | half-life at 50 μM [2] [min] | half-life at 50 μM ([3]; HEPES buffer, pH 7.4, 50 μM, HEPES pH 7.4, 150 μM NaCl, 37 °C, absorbance peak decay, read-out: t1/2, metal-free) [min] | Stability of the complex with Cu(II) ([2]; compound 50 μM, 5 h) | k, + Cu(II) (rate of decay of the absorbance peak) ([2]; compound 50 μM) | t1/2, + Cu(II) ([2]; compound 50 μM) | k, metal-free (rate of decay of the absorbance peak) [3, 5] | t1/2, metal-free [3, 6] | Stability in solution [3] | Interaction with Aβ in the presence of Cu(II) (Cu(II)–Aβ40/Aβ42) | Free organic radical scavenging ability (TEAC) [4] |
| --- | --- | --- | --- | --- | --- | --- | --- | --- | --- | --- | --- |
| Nc1ccc(NCc2ccccn2)cc1 [compound 1, N^1-(pyridin-2-ylmethyl)benzene-1,4-diamine] | 5.0(1) | 8 ± 3 |  |  | 0.09 ± 0.03 min⁻¹ | ~5 min | too slow to accurately measure the rate | No noticeable spectral changes were observed over 5 h | stable over 5 h | Cu–ligand-dependent signals corresponding to a mass 89 Da lighter than the apo Aβ40/Aβ42 | greater capacity than 2 |
